Experimental data: patent US20070203215A1, “Methods & Compositions For Enhancing Pharmaceutical Treatments” (Taiji Biomedical, Inc., priority 1999, published 2007)
pEC50: −log10 of the molar value. Read-outs that look alike come from different tables or passages of the source.

What was measured:
[1] = system: P-gp-expressing Cell Lines; assay: Modulation of P-gp-mediated drug resistance in vitro (panel statements); format: cell-based, human
Experimental: The compound of Formula 2 was able to reverse resistance to all classes of P-gp substrates in a wide variety of tumor cell types with EC50s in the low nM range (Table 2). Similar results were obtained with etoposide in several models. Complete reversal of MDR was typically seen with Formula 2 doses between 0.25 and 1.0 μM. Examples with cells expressing extremely high levels of P-gp as a result of drug selection (CEM/VLB1000), moderate levels of P-gp from gene transduction (MDA/LCC6 ^MDR1), and low (intrinsic) levels of P-gp (HCT-15) are illustrated in Table 2. The compound of Formula 2 had no effect on doxorubicin or paclitaxel IC50s in non-P-gp-expressing CCRF-CEM and MDA/LCC6 cells, respectively (FIG. 1, for MDA/LCC6 cells).
Cell proliferation IC50s and MDR reversal EC50s were determined from 3-day dose-response curves carried out in triplicate in 96-well plates essentially as described by Monks et al. (J. Natl. Cancer Inst., 83:757-66, 1991). Cells were plated in standard growth medium at 2.5 or 5.0×10^4 per well (CCRF-CEM and CEM/VLB1000 respectively) or 5×10^3 per well (all other cell lines) in a final volume of 100 μl. After a 2 h incubation for non-adherent cells and overnight incubation for adherent cells, the initial cell density was determined by fluorescence readout of Alamar Blue metabolism. […] Final cell density was determined with Alamar Blue. […]

[2] = molecular target: P450 CYP3A4 (Homo sapiens, UniProt P08684); assay: Metabolism by P450 CYP3A4; format: in vitro ADME
Chain of P450 CYP3A4 (P08684 whole entry): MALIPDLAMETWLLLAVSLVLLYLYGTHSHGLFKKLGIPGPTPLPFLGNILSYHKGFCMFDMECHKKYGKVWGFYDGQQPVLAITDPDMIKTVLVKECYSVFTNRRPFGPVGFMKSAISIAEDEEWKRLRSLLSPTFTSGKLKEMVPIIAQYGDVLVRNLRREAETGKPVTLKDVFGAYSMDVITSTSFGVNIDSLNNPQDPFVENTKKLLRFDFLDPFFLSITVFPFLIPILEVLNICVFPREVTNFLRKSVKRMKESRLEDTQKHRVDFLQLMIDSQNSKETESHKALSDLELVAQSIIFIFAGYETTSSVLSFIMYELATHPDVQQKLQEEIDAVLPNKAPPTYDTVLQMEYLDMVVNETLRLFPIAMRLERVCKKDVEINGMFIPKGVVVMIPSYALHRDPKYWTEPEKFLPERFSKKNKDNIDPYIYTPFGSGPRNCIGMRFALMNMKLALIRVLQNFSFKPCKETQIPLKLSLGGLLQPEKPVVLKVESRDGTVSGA
Source text: Two enzymes primarily responsible for metabolism of paclitaxel are P450 CYP3A4 and CYP2C8. Some P-gp inhibitors are also metabolized by P450 CYP 3A4, leading to inhibition of paclitaxel metabolism. This may contribute to PK interactions with paclitaxel.

[3] = Blood-brain barrier penetration of loperamide, mouse hot-plate test; format: in vivo, mice
Source text: These increases were dose dependent with respect to loperamide.

[4] = system: MDA/LCC6 human breast carcinoma xenografts; assay: In vivo antitumor efficacy, non-P-gp-expressing MDA/LCC6 xenografts; design: species or system SCID mice; settings: non-P-gp expressing tumor cells, FIG. 2
Experimental: Anti-tumor efficacy experiments with orthotopic MDA/LCC6 and MDA/LCC6^MDR1 tumors were conducted in female SCID/RAG2 mice. Ascites propagated cells (2×10^6 in 50 μl) were injected into mammary fat pads bilaterally on day 0 before randomization into groups of 5 mice per group. Paclitaxel (12 mg/kg/dose) was administered QD i.v. (tail vein) in 200 μl saline/Cremophor/ethanol (8/1/1 by volume) on days 5, 12, 19, and 26. The compound of Formula 2-free base (30 mg/kg/dose) was administered BID p.o. by gavage in 100 μl PEG 400/Tween 20 (9/1 by volume) on days 4-6, 11-13, 18-20, and 25-27. Mean body weights were recorded at least every other day. Tumor weight was monitored approximately every other day by caliper measurements and calculated according to the formula (Tumor weight =(length×width^2)÷2). This conversion formula was verified by comparing the calculation derived tumor weights to excised and weighed tumors. Animals bearing ulcerated tumors or where tumor weight exceeded 10% of the animal's body weight were terminated. The weights of the bilateral tumors were averaged for each mouse and mean tumor weights for each treatment group±standard error of the mean were calculated. Statistical analysis was carried out by Mann-Whitney test using GraphPad Prism software (San Diego, Calif.).

[5] = Saquinavir in rat cerebrospinal fluid and brain after oral ONT-093 or vehicle; format: in vivo, Sprague Dawley rats; settings: Group 3: after OC-144-093 20 mg/kg p.o.; 30 min after saquinavir dose; individual animals 3001-3004; 20 mg/kg
Experimental: Blood samples (ca 0.3 mL) were collected from 8 selected rats by jugular venipuncture during slight anesthesia pre-dose and at 0.25, 0.5, 1, 2, 4 and 8 post-dose (saquinavir dose). Cerebrospinal fluid (CSF) and brain tissue were collected terminally from the remaining 8 rats at ca 30 min following administration of the dose of saquinavir. Blood samples were collected into tubes containing EDTA and placed on wet ice pending centrifugation. Plasma, CSF and brain tissue samples were stored at ca −80° C. until analysis of saquinavir by LC/MS. The vehicle used was polyethylene glycol (PEG-400)1 Tween 20 (9:1; v:v).
A total of 16 male Sprague Dawley rats were received from Charles River Canada (Saint-Constant, Quebec). Animals were approximately 9 weeks of age at arrival and weighed ca 312-340 g. Four males were randomly assigned to each of Groups 1, 2, 3 and 4. On the day of dosing and following an overnight fast, animals were weighed (ca 305-323 g) and were administered their respective combination of doses. Animals of Groups 1 and 3 received a single oral dose of ONT-093 (20 mg/kg) by gavage at a dose volume of 2 mL/kg. Animals of Groups 2 and 4 received a single oral dose of the vehicle by gavage at a dose volume of 2 mL/kg. Approximately 30 min following administration of either ONT-093 or the vehicle, all animals received a single oral dose of saquinavir (20 mg/kg) by gavage at a dose volume of 1 mL/kg.
Following administration of saquinavir, blood samples (ca 0.3 mL in EDTA) were obtained from all rats of Groups 1 and 2 by jugular venipuncture during anesthesia with isoflurane (Ohmeda Pharmaceutical Products) at each of the following time-points: pre-dose (prior to administration of ONT-093 or vehicle) and 0.25, 0.5, 1, 2, 4 and 8 hr post-dose. Following administration of saquinavir, CSF was obtained from all animals of Groups 3 and 4 at 30 min following dose administration. CSF was collected (in tubes containing no anticoagulant) from the cistema magna during anesthesia with isoflurane. Following CSF collection, the animals were sacrificed by exsanguination via puncture of the vena cava and the brain was harvested from all these rats. Immediately following collection, all samples (blood, CSF and brain) were placed on ice until further processing or storage. Blood samples were centrifuged (ca 3080 g at ca 4° C. for 10 min) and the resulting plasma samples were stored at ca −80° C. pending analysis. CSF samples and brains were stored at ca −80° C. pending analysis.
Plasma samples, CSF samples and brains were analyzed for unchanged saquinavir using an LC/MS assay. Pharmacokinetic analysis was performed on plasma concentrations using the PhAST Software Program, Version 2.2-00 (Phoenix International Life Sciences Inc.). The highest observable concentration was assumed to be the peak concentration (Cmax); Time to Cmax was denoted Tmax. The area under the plasma concentration versus time-curve from time zero to the last measurable concentration [AUC(tf] was calculated by the linear trapezoidal method. Where applicable, numerical values were subjected to calculation of group means and % CV. Student-T-test with Satterthwaite approximation was performed on AUC and Cmax values to compare ONT-093 treated animals versus vehicle treated animals using SAS software program, Version 6.12 (SAS Institute Inc., Gary, N.C.). Where values were below limit of quantification, zero was used for pharmacokinetic analysis. The bioavailability (F) of saquinavir when administered with ONT-093 was calculated relative to the AUC values obtained from the animals receiving saquinavir following administration of the vehicle.

[6] = system: tumor-bearing mice; settings: 20 mg/kg paclitaxel with the compound of Formula 2
[7] = PK interaction study, i.v. plasma paclitaxel levels; format: in vivo, SCID/RAG2 mice; settings: three oral doses of 30 mg/kg before i.v. 16 mg/kg paclitaxel, FIG. 5
Experimental: At the indicated times after paclitaxel administration, 3 mice per time point were anesthetized with CO2 and blood was removed by cardiac puncture into Microtainer tubes containing EDTA. Plasma samples generated by centrifugation were extracted with acetonitrile and the analysis for paclitaxel content was carried out by HPLC using a Waters 600E multisolvent delivery system, 717 plus autosampler and 996 photodiode array detector. Baccatin III (0.8 nmoles/200 μl plasma) was used as the internal standard (IS) and added to plasma samples during extraction with acetonitrile. Standard curve samples as well as quality control samples were also prepared from spiked control plasma in order to verify the accuracy of the HPLC analysis. […] Waters, Milford, Mass.) with double distilled water (A), and acetonitrile (B), using the following gradient profile: t=0 min, 10% B; t=5 min, 10% B; t=30 min, 65% B; t=40 min, 65% B; t=45 min, 10% B; t=50 min, 10% B. The gradient was formed using a high pressure mixer and the flow rate was 1.0 ml min^−1. A Waters 996 Photo Diode Array Detector was used to scan at multiple wavelengths and chromatograms were processed for traces obtained at 230 nm.

[8] = system: MDA/LCC6^MDR1; assay: Reversal of MDR in P-gp-expressing cell line; format: cell-based, human; settings: for pEC50: Homo sapiens, MDA/LCC6^MDR1 breast
Experimental: Cell proliferation IC50s and MDR reversal EC50s were determined from 3-day dose-response curves carried out in triplicate in 96-well plates essentially as described by Monks et al. (J. Natl. Cancer Inst., 83:757-66, 1991). Cells were plated in standard growth medium at 2.5 or 5.0×10^4 per well (CCRF-CEM and CEM/VLB1000 respectively) or 5×10^3 per well (all other cell lines) in a final volume of 100 μl. After a 2 h incubation for non-adherent cells and overnight incubation for adherent cells, the initial cell density was determined by fluorescence readout of Alamar Blue metabolism. The compound of Formula 2, cytotoxic agents, or compound vehicles were added to duplicate plates and the incubation was continued for an additional 72 h. Final cell density was determined with Alamar Blue. In some experiments, a standard endpoint assay was used without analysis of initial cell density with Alamar Blue. Similar results were obtained with the two assays. EC50s were derived by nonlinear regression analysis assuming a sigmoidal dose-response using GraphPad Prism Software (San Diego, Calif.). Proliferation assays capable of measuring both cytostatic and cytotoxic responses were carried out as described herein with 15 non-transformed and transformed cell lines, including primary fibroblasts, non-transformed smooth muscle, leukemia, breast, colon, ovarian and uterine carcinoma cells (±P-gp expression). Although the compound of Formula 2 reversed P-gp-mediated MDR in the low nanomolar concentration range, the compound was non-cytotoxic by itself at doses up to 100 μM in all cell lines. […] IC50s for non-specific cytotoxicity were similar in matched cell lines plus and minus P-gp expression. […] If it were, some consistent degree of resistance would be expected in P-gp expressing cells.

Structure (SMILES): CCOC/C=C/c1ccc(-c2nc(-c3ccc(NC(C)C)cc3)c(-c3ccc(NC(C)C)cc3)[nH]2)cc1 [Formula 2 compound]
- MDR reversal potency after incubation in human plasma ([1]; human plasma): retained full MDR reversal potency
- EC50s for reversal of resistance to all classes of P-gp substrates ([1]; wide variety of tumor cell types): low nM range
- Metabolism by P450 CYP3A4 [2]: not metabolized
- Effect on hot-plate escape time ([3]; co-administration with loperamide, either 20 mg or 40 mg, dose dependent with respect to loperamide): significant increases
- Mean time to escape the hot-plate ([3]; in the absence of loperamide): 20 s
- In vivo anti-tumor activity of paclitaxel [4]: did enhance
- Saquinavir Concentration in CSF [5]: BLQ
- Tumor formation [6]: completely prevented tumor formation at several injection sites
- Effect on i.v. plasma paclitaxel levels [7]: no effect
- Resistance to paclitaxel treatment in vitro ([8]; FIG. 1): reversed
- pEC50 ([8]; read-out: Formula 2 compound EC50, reversal of Doxorubicin resistance): 7.89
- pEC50 ([8]; read-out: Formula 2 compound EC50, reversal of Paclitaxel resistance): 8.05
